# Legend:
# T cell = details: in the presence of tetanus toxoid or concanavalin A; Sinha 1988; cited from earlier work
# [1] = system: E.G7-OVA murine lymphoma cells; test: E.G7-OVA syngeneic mouse lymphoma model, INT-151 with anti-CTLA-4 (E.G7-OVA-e214 protocol)
# [2] = system: immune cell profile in peripheral blood; test: Immune profiles of peripheral blood by FACS analysis in lymphoma bearing mice; type: in vivo, C57BL/6 mice
# Text: (§1) In this study the immune cell profile in tumors and blood in lymphoma bearing mice was compared for a 3 times weekly dose of INT-151 and anti-CTLA-4 alone to the combination of 3 times weekly INT-151 plus anti-CTLA-4.
# (§2) On day 17 after treatment began, when tumors reached a volume of 500-600 mm^3, mice were sacrificed and tumors and blood was collected for Fluorescent Activated Cell Sorting (FACS) analysis to determine the following immune cell types as listed in the table below:
# (§3) Animals were to be monitored individually. Randomization into treatment groups was conducted when tumors reached an average of 43 mm^3 (n=6). Mice were euthanized after 17 days to collect tumors and blood for FACS analysis.
# [3] = system: immune cell profile in tumors; test: Immune profiles of tumors by FACS analysis in lymphoma bearing mice; type: in vivo, C57BL/6 mice
# Text: as §1, §2, §3
# [4] = system: E.G7-OVA murine lymphoma cells; test: Pilot dose response study, INT-151 once vs 3× weekly alone and with anti-CTLA-4 (E.G7-OVA-e215 protocol)
# [5] = system: E.G7-OVA murine lymphoma cells; test: Tumor volume in immune cell profile study of established tumors (E.G7-OVA-e217 protocol); type: in vivo, C57BL/6 mice; details: at study end; INT-151 100 μg/animal 3 times a week; anti-CTLA-4 100 μg then 50 μg ×2; n=6; FIG. 6
# Text: as §1, §2, §3
# [6] = INT-151 in combination with anti-CTLA-4
# [7] = INT-151 100 μg/animal 1× weekly (alone or with anti-CTLA-4 days 6, 9, 12), only animals with tumor take
# [8] = INT-151 100 μg/animal 3× weekly (alone or with anti-CTLA-4), only animals with tumor take
compound,measurement,setting,value
tyr-gly-gly-phe-met [met-enkephalin],T cell proliferation,T cell,elicit T cell proliferation
"CC(C)CC(NC(=O)C(Cc1ccccc1)NC(=O)CNC(=O)CNC(=O)C(N)Cc1ccc(O)cc1)C(=O)O (stereo not shown) [leu-enkephalin, tyr-gly-gly-phe-leu]",T cell proliferation,T cell,elicit T cell proliferation
"N[C@@H](Cc1ccc(O)cc1)C(=O)NCC(=O)O [INT-151, tyrosyl-glycine]",synergy with anti-CTLA-4 on survival,[1]; [6],acts synergistically
same,overall survival,"[1]; compared to control, FIG. 3, FIG. 4","not INT-151, demonstrated improved overall survival"
same,body-weight (clinical improvement),"[1]; compared to untreated Group 1, FIG. 2",slight positive clinical improvement
same,median tumor volume growth / tumor size,"[1]; compared to untreated Group 1, INT-151 100 μg/animal i.p. weekly from Day 6, anti-CTLA-4 Days 6, 9, 12, FIG. 1",slight positive clinical improvement
same,CD4+ T cell population,"[2]; compared to controls, FIG. 8",did not affect
same,CD8+ T cell population,"[2]; compared to controls, FIG. 8",did not affect
same,M1 macrophage population,"[2]; compared to controls, FIG. 8",unchanged
same,M2 macrophage population,"[2]; compared to controls, FIG. 8",elevated
same,Monocytic myeloid suppressor cells,"[2]; compared to controls, FIG. 8",not affected
same,granulocytic MDSCs,"[2]; compared to controls, FIG. 8",reduced
same,regulatory T cells,"[2]; compared to controls, FIG. 8",did not affect
same,total macrophage population,"[2]; compared to controls, FIG. 8",increased
same,ratio of CD8+T/Treg,[2]; controls 8.4,6.4
same,CD4+T cells,"[3]; compared to controls, FIG. 7",unchanged
same,CD8+ T cell population,"[3]; compared to controls, FIG. 7",did not affect
same,M1 macrophage population,"[3]; compared to controls, FIG. 7",decreased
same,M2 macrophage population,"[3]; compared to controls, FIG. 7",increasing
same,granulocytic myeloid suppressor cells,"[3]; compared to controls, FIG. 7",unchanged
same,regulatory T cells,"[3]; compared to controls, FIG. 7",did not affect
same,ratio of CD8+T/Treg,[3]; control group 3.2,2.5
same,% Alive on day 26,[4]; [7],100%
same,% Alive on day 29,[4]; [7],100%
same,% Alive on day 33,[4]; [7],60%
same,% Alive on day 36,[4]; [7],20%
same,% Alive on day 43,[4]; [7],0%
same,% Alive on day 26,[4]; [8],100%
same,% Alive on day 29,[4]; [8],100%
same,% Alive on day 33,[4]; [8],80%
same,% Alive on day 36,[4]; [8],40%
same,% Alive on day 40,[4]; [8],30%
same,% Alive on day 43,[4]; [8],0%
same,clinical improvement (median tumor volume and survival),"[4]; INT-151 3 times weekly, alone or with anti-CTLA-4, FIG. 5",greater clinical improvement
same,synergy with anti-CTLA-4 on survival,[4]; [6],synergizes
same,tolerability,[4]; each treatment group,well tolerated
same,Median tumor volumes,[5],831.0 mm^3
